In PubChem BioAssay AID624408 (The Scripps Research Institute Molecular Screening Center, 2012):
Active and inactive are the calls of the source.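 How the source made its calls: active means IC50 at or below 10 µM; inactive means IC50 above 10 µM.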

test system: parental CHO-K1, ATP-induced calcium, Fluo-8 fluorescence; experiment: nonselective Gq inhibitors in untransfected CHO cells – cell-based, fluorescence, dose response, artefact control for OX1R antagonist project, late-stage follow-up (AID 624408)

SMILES	IC50
CC(=C/c1ccccc1)/C=C1/SC(N2CCOCC2)=NC1=O	52.1 µM (inactive)
O=c1cc(CN2CC(O)Cc3ccc4ccccc4c32)nc2sccn12 (stereo unspecified)	55.4 µM (inactive)
O=C(CSc1ccc(-c2ccccc2)nn1)c1cccs1	> 59.6 µM (inactive)
Cc1cccc(C=NNC(=O)c2cc3c(s2)-c2ccccc2CC3)c1	> 59.6 µM (inactive)
CSc1cccc(N2CC(C(=O)NCCN3C(=O)S/C(=C\c4cccnc4)C3=O)CC2=O)c1 (stereo unspecified)	> 59.6 µM (inactive)
CN(N=Cc1cc([N+](=O)[O-])ccc1O)c1ccccc1	> 59.6 µM (inactive)
CSc1cccc(NC(=O)C2CCCN2S(=O)(=O)c2ccc(Br)s2)c1 (stereo unspecified)	20.4 µM (inactive)
Cc1ccc(-c2csc3nnc(SCC(=O)Nc4nsc(-c5ccccc5)n4)n23)cc1	> 59.6 µM (inactive)
COc1cc(OC)c(-c2nc3ccccc3s2)cc1OC	> 59.6 µM (inactive)
Cc1noc(C)c1COc1ccc(C(=O)OCC(=O)N2CC(=O)Nc3ccccc32)cc1	> 59.6 µM (inactive)
Cc1c(NS(=O)(=O)c2cccc(C(=O)OCC(=O)N(C)C3CCCCC3)c2)c(=O)n(-c2ccccc2)n1C	> 59.6 µM (inactive)
CCN(CC)c1ccc(NC(=O)Cn2c(C(C)NC(=O)c3ccccc3)nc3ccccc32)cc1 (stereo unspecified)	> 59.6 µM (inactive)
COc1ccc(OC)c(S(=O)(=O)NCC(c2ccco2)N2CCc3ccccc32)c1 (stereo unspecified)	> 59.6 µM (inactive)
COCCCNC(=O)CCC(=O)NNc1nc2ccccc2c2nc(-c3ccccc3)nn12	> 59.6 µM (inactive)
O=C(CN1C(=O)/C(=C\c2cccc(Br)c2)Oc2ccccc21)NCC1CCCO1 (stereo unspecified)	> 59.6 µM (inactive)
CCOC(=O)N1CCN(C(=O)CSc2ccc(-c3ccccc3)nn2)CC1	> 59.6 µM (inactive)
CCc1cc(C(=O)OCC(=O)N2CCC(c3ccccc3)=N2)sc1C	> 59.6 µM (inactive)
Cc1cccc(NC(=O)[C@@H]2CCCN2S(=O)(=O)c2ccc(Cl)cc2)c1	> 59.6 µM (inactive)
COc1cccc(/C=C2/Oc3ccccc3N(CC(=O)NCC3CCCO3)C2=O)c1 (stereo unspecified)	> 59.6 µM (inactive)
CCc1cc2c(SCC(=O)N(CC)c3c(N)n(Cc4ccccc4)c(=O)[nH]c3=O)ncnc2s1	> 59.6 µM (inactive)
CCOc1ccccc1C(=O)Nc1ccc2nc3n(c(=O)c2c1)CCCCC3	> 59.6 µM (inactive)
Cc1cc(Cl)ccc1OCCCC(=O)NCCN1C(=O)S/C(=C\c2cccnc2)C1=O	7.22 µM
CCSC1=C(C#N)C(c2ccccc2Cl)C(C(=O)c2cccs2)C(O)(C(F)(F)F)N1 (stereo unspecified)	21.8 µM (inactive)
CCn1c(SCC(=O)Nc2ccc3c(c2)c2ccccc2n3CC)nnc1-c1cnccn1	> 59.6 µM (inactive)
Fc1cccc(Nc2nc3ccccc3n3cnnc23)c1	> 59.6 µM (inactive)
Cc1ccccc1NC(=O)C1CCCN1S(=O)(=O)c1ccccc1C(F)(F)F (stereo unspecified)	> 59.6 µM (inactive)
